Patent US6015577A, “Pharmaceutical compositions containing dipyridamole or mopidamol and acetylsalicylic acid or the physiologically acceptable salts thereof, processes for preparing them and their use in treating clot formation” (Thomae GmbH; Dr. Karl, priority 1986, dated 2000)

Test system: clot formation in vessels of the mesenterium
Test: electrically induced clot formation in mesenteric vein, clot size monitored by intravital microscope
Type: in vivo, rat
Settings: 2.5 mg/kg acetylsalicylic acid or 5 mg/kg dipyridamole p.o. alone; FIGS. 5 and 6
Protocol: The antithrombotic activity achieved with a simultaneous oral administration, according to the invention, of 5 mg/kg of dipyridamole and 0.05 mg/kg of acetylsalicylic acid (weight ratio of dipyridamole to acetylsalicylic acid=100) and, by comparison, during sequential oral administration (according to European Application No. 85 108 761.9) of 5 mg/kg of dipyridamole and 5 mg/kg of acetylsalicylic acid to rats (FW 49) with a body weight of from 60 to 80 g before the start of the experiment was investigated by applying a clotting stimulus to vessels of the mesenterium and by monitoring the size of the clots over a period of time. Groups of 5 animals were used. […] An interval of 1 hour was left between the simultaneous oral administration of the substances according to the invention and the application of the clot or the actual carrying out of the measurements. […]
Using an intravital microscope to monitor the process, a platinum electrode was placed on an outer blood vessel wall of the mesenterium. […] The size of the clot is measured at 10 second intervals and later at 30 second intervals over a period of up to 20 minutes after the stimulation of the blood vessel and is given as the size of the clot (at right angles to the blood vessel wall) as a percentage of the internal diameter of the blood vessel.

SMILES | reduction in the clot size, single substance
OCCN(CCO)c1nc(N2CCCCC2)c2nc(N(CCO)CCO)nc(N3CCCCC3)c2n1 [Dipyridamole, 2,6-bis-(diethanolamino)-4,8-dipiperidino-(5,4-d)-pyrimidine] | do not bring about any significant reduction in the clot size
CC(=O)Oc1ccccc1C(=O)O [Acetylsalicylic acid, acetylsalicylic acid] | do not bring about any significant reduction in the clot size
